Series [1] can be described thus: Cmax in mouse at 250 mg/kg administered bid. It counts as ADME, organism-based. Also noted: dose 250 mg/kg. The conditions noted are these: in vivo.
The nature of series [2]: Apparent oral clearance in male cynomolgus monkey at 225 mg/kg, po measured on day 1. It counts as ADME, organism-based, Macaca fascicularis. The conditions noted are these: in vivo.
Series [3] is described as follows: Dose normalized Cmax in rat at 50 mg/kg, po measured upto 72 hrs by LC-MS/MS analysis. It counts as ADME, organism-based. The conditions noted are these: in vivo.
A short description of series [4]: Half life in female cynomolgus monkey at 75 mg/kg, po measured on day 1. The format is ADME, organism-based, Macaca fascicularis. The note with it: in vivo.
Series [5] is described as follows: Half life in female cynomolgus monkey at 375 mg/kg, po BID measured on day 8. It counts as ADME, organism-based, Macaca fascicularis. The note with it: in vivo.
Series [6] can be described thus: AUC (0 to 24 hrs) in female cynomolgus monkey at 225 mg/kg, po measured on day 1. It counts as ADME, organism-based, Macaca fascicularis. Set-up: time < 24 hr, route oral, dose 225 mg/kg. The note with it: in vivo.
Series [7] can be described thus: Half life in rat at 20 to 900 mg/kg, po. It counts as ADME, organism-based. The conditions noted are these: in vivo, dose 20-900 mg/kg.
The nature of series [8]: Apparent oral clearance in male cynomolgus monkey at 75 mg/kg, po measured on day 1. The conditions noted are these: in vivo. The format is ADME, organism-based, Macaca fascicularis.
Series [9] is described as follows: AUC (0 to 24 hrs) in female cynomolgus monkey at 15 mg/kg, iv measured on day 1. It counts as ADME, organism-based, Macaca fascicularis. Set-up: time < 24 hr, route intravenous, dose 15 mg/kg. The conditions noted are these: in vivo.
Series [10] can be described thus: AUC (0 to infinity) in human at 2400 mg administered bid. The note with it: in vivo. The format is ADME. Also noted: time infinity, dose 2400 mg.
Series [11] is described as follows: Change in normalised Cmax in rat at 50 mg/kg, po measured upto 72 hrs by LC-MS/MS analysis. The format is ADME, organism-based. The conditions noted are these: in vivo.
Series [12] can be described thus: AUC (0 to 24 hrs) in male cynomolgus monkey at 75 mg/kg, po measured on day 1. It counts as ADME, organism-based, Macaca fascicularis. The conditions noted are these: in vivo. Also noted: time < 24 hr, route oral, dose 75 mg/kg.
A short description of series [13]: Cmax in male cynomolgus monkey at 75 mg/kg, po measured on day 1. The conditions noted are these: in vivo. The format is ADME, organism-based, Macaca fascicularis. Also noted: route oral, dose 75 mg/kg.
Series [14] can be described thus: Average plasma concentration at steady state in mouse at 250 mg/kg administered bid. The format is ADME, organism-based. The conditions noted are these: in vivo.
A short description of series [15]: Half life in mouse at 20 to 900 mg/kg, po. It counts as ADME, organism-based. The conditions noted are these: in vivo, dose 20-900 mg/kg.
A short description of series [16]: Dose normalized AUC (0 to infinity) in rat at 50 mg/kg, po measured upto 72 hrs by LC-MS/MS analysis. The format is ADME, organism-based. The note with it: in vivo.
Series [17] can be described thus: Tmax in male cynomolgus monkey at 75 mg/kg, po measured on day 1. The format is ADME, organism-based, Macaca fascicularis. The conditions noted are these: in vivo.
A short description of series [18]: Half life in rat. The format is ADME. The conditions noted are these: in vivo.
The nature of series [19]: Half life in female cynomolgus monkey at 15 mg/kg, iv measured on day 1. It counts as ADME, organism-based, Macaca fascicularis. The note with it: in vivo.
The nature of series [20]: Cmax in mouse at 62 mg/kg administered bid. It counts as ADME, organism-based. Set-up: dose 62 mg/kg. The note with it: in vivo.
Series [21] in a line: Lipophilicity, logD of compound. The format is physicochemical. The conditions noted are these: octanol/water.
Another series has as its target CYP3A4 (Homo sapiens, UniProt P08684). The series can be described thus: Time dependent inhibition of CYP3A4 in human hepatocytes assessed as fold shift relative to control. It counts as ADME, cell-based, Hepatocyte. The conditions noted are these: read-out: FC.
In a further series the target is Cytochrome P450 2C19 (Homo sapiens, UniProt P33261). The series can be described thus: Inhibition of CYP2C19 in human hepatocytes. The format is ADME, cell-based, Hepatocyte.
Sequence of Cytochrome P450 2C19 (P33261 whole entry): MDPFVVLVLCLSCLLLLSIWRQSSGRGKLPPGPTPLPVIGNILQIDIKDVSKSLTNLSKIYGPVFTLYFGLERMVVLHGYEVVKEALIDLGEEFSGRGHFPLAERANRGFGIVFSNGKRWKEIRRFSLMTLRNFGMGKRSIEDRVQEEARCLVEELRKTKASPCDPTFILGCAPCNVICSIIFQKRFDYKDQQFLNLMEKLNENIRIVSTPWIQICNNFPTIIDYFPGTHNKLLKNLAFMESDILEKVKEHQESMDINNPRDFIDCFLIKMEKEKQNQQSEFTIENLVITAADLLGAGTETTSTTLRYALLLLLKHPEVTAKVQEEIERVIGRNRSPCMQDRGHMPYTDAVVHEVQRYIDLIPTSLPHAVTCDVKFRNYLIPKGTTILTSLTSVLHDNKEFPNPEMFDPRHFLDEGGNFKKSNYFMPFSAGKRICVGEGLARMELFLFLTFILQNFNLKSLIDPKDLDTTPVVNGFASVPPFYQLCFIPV
The nature of series [22]: Chemical stability of compound in 0.1 N aqueous HCl buffer assessed as compound remaining at pH 1 at 5 uM measured after 24 hrs by LC-MS/MS analysis. It counts as physicochemical. The note with it: pH 1, 24 h.
Series [23] in a line: Chemical stability of compound in saline assessed as compound remaining at 5 uM measured after 24 hrs by LC-MS/MS analysis. The note with it: read-out: Stabilty. The format is physicochemical.
Series [24] in a line: Stability in mouse plasma assessed as parent compound remaining measured after 2 hrs by LC-MS/MS analysis. The format is ADME, cell-free. The conditions noted are these: read-out: Stabilty.
The nature of series [25]: Toxicity in monkey assessed as change in cardiovascular parameter. Set-up: species or system Macaca mulatta. The note with it: rhesus monkey, in vivo.
The nature of series [26]: Drug metabolism in cynomolgus monkey assessed as formation of M9 metabolite at 75 to 375 mg/kg, po BID. The conditions noted are these: in vivo, dose 75-375 mg/kg. It counts as ADME, organism-based, Macaca fascicularis.
Another series deals with T1, Cytochrome P450 1A2 (Homo sapiens, UniProt P05177).
T1 sequence (P05177 whole entry): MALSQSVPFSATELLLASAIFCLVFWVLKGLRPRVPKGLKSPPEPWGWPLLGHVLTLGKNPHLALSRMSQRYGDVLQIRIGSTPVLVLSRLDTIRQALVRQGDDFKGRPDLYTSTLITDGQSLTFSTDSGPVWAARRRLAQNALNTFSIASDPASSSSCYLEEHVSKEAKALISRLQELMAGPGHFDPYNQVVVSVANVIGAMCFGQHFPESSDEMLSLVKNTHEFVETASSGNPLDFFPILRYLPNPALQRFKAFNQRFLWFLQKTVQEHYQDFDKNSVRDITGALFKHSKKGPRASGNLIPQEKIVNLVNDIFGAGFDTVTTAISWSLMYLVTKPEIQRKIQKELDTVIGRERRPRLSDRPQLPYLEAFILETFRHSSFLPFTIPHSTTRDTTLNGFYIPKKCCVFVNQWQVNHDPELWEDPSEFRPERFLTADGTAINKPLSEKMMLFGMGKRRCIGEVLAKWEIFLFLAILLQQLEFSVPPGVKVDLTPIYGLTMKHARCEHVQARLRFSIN
The experiment in a line: Induction of CYP1A2 in human hepatocytes. The format is ADME, cell-based, Hepatocyte.

A short description of series [27]: Oral bioavailability in male cynomolgus monkey at 75 mg/kg. The format is ADME, organism-based, Macaca fascicularis. The note with it: in vivo.
Series [28] can be described thus: Chemical stability of compound in simulated gastric fluid assessed as compound remaining at 5 uM measured after 24 hrs by LC-MS/MS analysis. The conditions noted are these: read-out: Stabilty. The format is ADME, physicochemical.
Series [29] can be described thus: Drug metabolism in Sprague-Dawley rat hepatocytes assessed as unmetabolized compound at 10 uM incubated for 120 mins by UPLC-QTOF-PDA analysis. The format is ADME, cell-based, Hepatocyte. The note with it: read-out: Drug metabolism.
A short description of series [30]: Genotoxicity in monkey. The format is toxicity, Macaca mulatta. The conditions noted are these: rhesus monkey.
Series [31] can be described thus: Stability in human plasma assessed as parent compound remaining measured after 6 hrs by LC-MS/MS analysis. The note with it: read-out: Stabilty. It counts as ADME, cell-free.
A short description of series [32]: Toxicity in po BID rat assessed as NOAEL. It counts as organism-based. The conditions noted are these: in vivo.
The nature of series [33]: Drug metabolism in rats assessed as formation of M9 metabolite at 20 to 900 mg/kg. The note with it: rat, in vivo; dose 20-900 mg/kg. The format is ADME, organism-based.
Series [34] can be described thus: Drug metabolism in cynomolgus monkey assessed as formation of M9 metabolite at 15 mg/kg, iv administered as single dose. It counts as ADME, organism-based, Macaca fascicularis. The conditions noted are these: in vivo.
Series [35] can be described thus: Chemical stability of compound in PBS buffer assessed as compound remaining at pH 7.4 at 5 uM measured after 24 hrs by LC-MS/MS analysis. It counts as physicochemical. The conditions noted are these: read-out: Stabilty.
Series [36] in a line: Drug metabolism in Beagle dog hepatocytes assessed as unmetabolized compound at 10 uM incubated for 120 mins by UPLC-QTOF-PDA analysis. It counts as ADME, cell-based, Canis lupus familiaris, Hepatocyte. The note with it: read-out: Drug metabolism.
Series [37] can be described thus: Inhibition of P-gp transporter activity in MDR1-MDCK2 cells. The format is cell-based, Canis lupus familiaris. The conditions noted are these: mdckii-mdr1.
Series [38] can be described thus: Solubility of the compound in FaSSIF. The format is physicochemical.
A short description of series [39]: Lipophilicity, logP of the compound. It counts as physicochemical. The note with it: octanol/water.
The nature of series [40]: Drug metabolism in rat assessed as indoximod formation by measuring indoximod Tmax at 20 to 900 mg/kg. It counts as ADME, organism-based. The note with it: in vivo, dose 20-900 mg/kg.
The nature of series [41]: Protein binding in human plasma. The conditions noted are these: read-out: PPB. It counts as ADME, cell-free.
The nature of series [42]: Apparent oral clearance in male cynomolgus monkey at 75 mg/kg, po BID measured on day 8. It counts as ADME, organism-based, Macaca fascicularis. The note with it: in vivo.

We go through two molecules from ChEMBL document CHEMBL4837181 (Eur J Med Chem, 2020).

Each structure is given as a SMILES string. Some results are limits rather than exact numbers.

By Cmax is commonly meant the peak of the concentration-time curve. One may read the CL/F as clearance divided by bioavailability, as obtained after extravascular dosing. The term half-life denotes the time needed for the level to fall by half in the phase considered. Usually AUC(0-t) stands for exposure summed from dosing to a finite time, without extrapolation to infinity. As a reminder, the AUC(0-inf) is total exposure, with the tail of the curve extrapolated. One may read the Tmax as the time from dosing to the highest level. What is called logD is lipophilicity at a set pH, counting ionised and neutral species. Usually IC50 stands for the concentration at which inhibition is half-maximal. As usually defined, the bioavailability is dose-corrected exposure relative to a reference, in per cent. As a reminder, the NOAEL is the highest dose or exposure tested at which no adverse effect was seen. For orientation: solubility means the dissolved amount per volume that the medium holds. The logP is the decadic logarithm of the partition coefficient of the neutral form, usually between octanol and water.

Sequence of CYP3A4 (P08684 whole entry): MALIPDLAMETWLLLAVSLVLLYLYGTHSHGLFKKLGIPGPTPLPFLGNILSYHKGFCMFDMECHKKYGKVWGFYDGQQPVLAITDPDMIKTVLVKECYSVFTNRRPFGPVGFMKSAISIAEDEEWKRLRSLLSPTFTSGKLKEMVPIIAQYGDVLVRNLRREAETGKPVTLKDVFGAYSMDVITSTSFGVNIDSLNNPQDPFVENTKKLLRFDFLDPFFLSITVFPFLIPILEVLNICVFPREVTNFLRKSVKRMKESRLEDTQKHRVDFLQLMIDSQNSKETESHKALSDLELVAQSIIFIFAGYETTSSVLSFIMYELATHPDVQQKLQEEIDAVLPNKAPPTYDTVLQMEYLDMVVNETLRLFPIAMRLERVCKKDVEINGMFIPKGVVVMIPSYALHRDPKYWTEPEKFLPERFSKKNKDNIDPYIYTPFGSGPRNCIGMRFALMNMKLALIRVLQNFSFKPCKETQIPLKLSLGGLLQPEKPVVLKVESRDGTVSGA

As for `Cn1cc(C[C@@H](N)C(=O)O)c2ccccc21` [INDOXIMOD], the Cmax was 50 µM in [1], 74.4 µM in series [13] and greater than 16 µM in series [20]. Besides, the apparent clearance CL/F came out at 22.1 mL/min/kg in series [2] and 16.2 mL/min/kg in series [8]. Also, in series [3], the Cmax/dose was 27 µM. The half-life in [4] was 1.8 h; in series [5], 3.8 h; in [7] it was 23 h; in series [15], 2.2 h; in [18], 30 h; in series [19], 1.5 h. In addition, the exposure AUC(0-t) at 24 h amounted to 181 µM·h in series [6], 70.6 µM·h in series [9] and 223 µM·h in [12]. Further, the AUC(0-inf) in series [10] amounted to 170 µM·h. For the same molecule, the Activity in [11] worked out at 0%. Besides, the Cave in [14] amounted to 29 µM. Also, the AUC/dose in [16] came out at 1323 µM·h. Also, in [17], the time to peak (Tmax) is 2 h.
For `CCOC(=O)[C@@H](Cc1cn(C)c2ccccc12)NC(=O)[C@@H](N)CC(C)C.Cl`, the log distribution coefficient (logD) in [21] stood at 2.3. Also, the IC50 shift at CYP3A4 amounted to 7. The figures for the IC50 (at Cytochrome P450 2C19; in [37]) were 47 µM and 27 µM, respectively. For the same molecule, the Stabilty in series [22] is 87%. For the same molecule, the remaining at 24 h, 5 µM in [23] is 87%; in series [28], 88%; in series [35], 48%. The remaining at 2 h in [24] was found to be 0%. Also, the Activity result was “Non-Toxic” in series [25], “Not Active” at Cytochrome P450 1A2 and “Non-Toxic” in series [30]. Besides, the Drug metabolism result in series [26], in [33] and in series [34] was “Metabolite_Detected” throughout. In [27], this molecule had a bioavailability of 61.8%. The remaining at 2 h, 10 µM came to 0.4% in [29] and 1.1% in series [36]. Also, the remaining at 6 h in [31] turned out to be 53%. In [32], the NOAEL came to 60 mg/kg. The molecule further gave a solubility in series [38] of 19.1 mg/mL. In addition, the log partition coefficient (logP) in [39] came out at 2.6. In [40], the Tmax turned out to be 1 h. In addition, in [41], the fraction unbound was 0.5. Besides, the apparent clearance (CL/F) in series [42] worked out at 25.6 mL/min/kg.
